What is called inhibition is the drop in the measured response relative to a control, in per cent. Low readings indicate little suppression, high ones strong suppression. The term IC50 denotes the concentration needed to halve the response being measured. Higher therefore signals lower potency.

Results on 16 compounds are retold here after ChEMBL document CHEMBL3259799, “New melatonin-N,N-dibenzyl(N-methyl)amine hybrids: potent neurogenic agents with antioxidant, cholinergic, and neuroprotective properties as innovative drugs for Alzheimer's disease” (J Med Chem, 2014).

Calls of active or inactive are those of the source. No cut-off for these calls is given here.

Data set [1] can be described thus: Permeability of the compound by PAMPA. In kind it is physicochemical. As to conditions: read-out: permeability. (In PAMPA a lipid-coated filter parts donor from acceptor wells.)
The subject of data set [2] is SH-SY5Y. In words: Neuroprotective activity in human SH-SY5Y cells assessed as protection from rotenone/oligomycin A-induced mitochondrial ROS at 1 uM incubated for 24 hrs prior to rotenone/oligomycin A challenge measured after 24 hrs by LDH assay. In kind it is functional.
Data set [3] can be described thus: Antioxidant activity assessed as oxygen radical absorbance capacity after 15 mins fluorescence assay relative to trolox. In kind it is functional.
The species named for the next data set is Homo sapiens. Kind of data set: Inhibition of human BuChE using butyrylthiocholine as substrate at 10 uM incubated for 5 mins prior to substrate addition measured after 5 mins by Ellman method. For orientation: In Ellman's method for cholinesterases, released thiocholine reacts with DTNB.
In another data set the target is Acetylcholinesterase (Homo sapiens, UniProt P22303).
Data set [4] can be described thus: Cytotoxicity against human SH-SY5Y cells assessed as cell viability at 1 uM after 24 hrs by LDH assay relative to control. In kind it is cell-based. As to conditions: read-out: Activity.
The species named for data set [5] is Rattus norvegicus. Kind of data set: Neurogenic activity in Wistar rat Primary neural stem cells assessed as cell maturation by measuring TuJ1 at 10 uM after 48 hrs by DAPI staining-based immunohistochemistry. Format: functional.
Data set [6] relates to SH-SY5Y. Kind of data set: Cytotoxicity against human SH-SY5Y cells at 10 uM after 48 hrs by LDH assay relative to control. In kind it is cell-based.
Data set [7] is filed under the species Rattus norvegicus. Kind of data set: Neurogenic activity in Wistar rat Primary neural stem cells assessed as cell maturation by measuring MAP-2 at 10 uM after 48 hrs by DAPI staining-based immunohistochemistry. Format: functional.
The test system of data set [8] is SH-SY5Y. In words: Cytotoxicity against human SH-SY5Y cells at 10 uM after 48 hrs by MTT assay relative to control. Format: cell-based. In general terms: Tetrazolium assays rely on reduction of a dye to a coloured formazan, in cell work by metabolically active cells.

Sequence of Acetylcholinesterase (P22303 whole entry): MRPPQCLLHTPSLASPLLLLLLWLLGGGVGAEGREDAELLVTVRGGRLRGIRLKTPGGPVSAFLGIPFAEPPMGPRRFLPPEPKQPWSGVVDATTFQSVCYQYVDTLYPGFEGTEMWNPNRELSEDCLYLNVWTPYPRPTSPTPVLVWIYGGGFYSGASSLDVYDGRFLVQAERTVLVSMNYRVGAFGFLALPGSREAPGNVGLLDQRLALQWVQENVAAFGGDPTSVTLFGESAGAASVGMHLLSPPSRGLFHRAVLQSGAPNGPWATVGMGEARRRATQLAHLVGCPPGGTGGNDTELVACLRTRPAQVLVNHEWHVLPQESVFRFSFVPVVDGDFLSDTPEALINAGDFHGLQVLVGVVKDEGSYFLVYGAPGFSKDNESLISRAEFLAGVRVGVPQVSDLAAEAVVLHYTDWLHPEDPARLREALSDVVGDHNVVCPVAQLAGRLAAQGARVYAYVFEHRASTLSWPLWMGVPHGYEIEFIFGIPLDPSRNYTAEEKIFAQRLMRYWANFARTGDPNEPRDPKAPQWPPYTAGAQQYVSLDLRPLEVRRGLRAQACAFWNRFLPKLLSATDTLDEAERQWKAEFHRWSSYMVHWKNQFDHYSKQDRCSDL
Description for Acetylcholinesterase: Inhibition of human recombinant AchE using acetylthiocholine iodide as substrate incubated for 5 mins prior to substrate addition measured after 5 mins by Ellman method

With `COc1ccc2[nH]cc(CCNC(=O)c3ccc(CN(C)Cc4ccccc4OC)cc3)c2c1`, in data set [1], the Papp was 9.9 ×10⁻⁶ cm/s. The Activity in the data set with SH-SY5Y [2] was determined as 12%; in data set [3] it was 2.4. The compound also registered an inhibition in the data set filed under Homo sapiens of 47%. This compound had a concentration for half-maximal inhibition (IC50) at Acetylcholinesterase of 5.4 µM. The viability at 24 h, 1 µM in data set [4] came out at 100%.
Regarding `CN(Cc1ccccc1)Cc1ccc(C(=O)NCCc2c[nH]c3ccccc23)cc1`, the Papp in data set [1] is 7.4 ×10⁻⁶ cm/s. Moreover, the Activity is 12% with SH-SY5Y [2] and 3.2 in [3]. In addition, on Acetylcholinesterase, 1.9 µM corresponded to half-maximal inhibition (IC50). Besides, the viability at 24 h, 1 µM in data set [4] amounted to 100%.
For the compound `COc1ccc2[nH]cc(CCNC(=O)c3ccc(CN(C)Cc4ccccc4Cl)cc3)c2c1`, in [1], the Papp was determined as 5.9 ×10⁻⁶ cm/s. The Activity in the data set on SH-SY5Y [2] stood at 27%; in [3], 2.5. This compound yielded an inhibition in the data set filed under Homo sapiens of 37%. Also, on Acetylcholinesterase, inhibition was half-maximal at 2.6 µM (IC50). Besides, in data set [4], the viability at 24 h, 1 µM is 100%.
Consider `COc1cccc(CN(C)Cc2ccc(C(=O)NCCc3c[nH]c4ccccc34)cc2)c1`, for which the Papp in [1] is 8.8 ×10⁻⁶ cm/s. Further, the Activity in the data set with SH-SY5Y [2] amounted to 12%; in data set [3] it was 2.7. The same compound registered an IC50 on Acetylcholinesterase of 3.8 µM. In addition, the viability at 24 h, 1 µM in data set [4] was determined as 100%.
For the compound `COc1ccc2[nH]cc(CCNC(=O)c3ccc(CN(C)Cc4ccccc4)cc3)c2c1`, in data set [1], the Papp worked out at 7.1 ×10⁻⁶ cm/s. For the same compound, the Activity was 36% in the data set with SH-SY5Y [2], “Non-toxic” with SH-SY5Y [6], 2.5 in data set [3] and “Non-toxic” with SH-SY5Y [8]. Further, the result in the data set listed under Rattus norvegicus [5] and in the data set filed under Rattus norvegicus [7] was Active. For the same compound, the IC50 at Acetylcholinesterase was determined as 6.1 µM. Also, the viability at 24 h, 1 µM in data set [4] came to 100%.
Turning to `COc1ccc2[nH]cc(CCNC(C)=O)c2c1`, the result in the data set filed under Rattus norvegicus [5] and in the data set listed under Rattus norvegicus [7] was Active. In addition, the Activity in [3] came to 2.4.
Consider `COc1cccc(CN(C)Cc2ccc(C(=O)NCCc3c[nH]c4ccc(OC)cc34)cc2)c1`, for which the Papp in data set [1] amounted to 8.7 ×10⁻⁶ cm/s. Also, the Activity was 40% in the data set on SH-SY5Y [2], “Non-toxic” in the data set with SH-SY5Y [6], 2.5 in data set [3] and “Non-toxic” in the data set on SH-SY5Y [8]. In addition, the result in the data set listed under Rattus norvegicus [5] and in the data set listed under Rattus norvegicus [7] was Active. In the data set listed under Homo sapiens, this compound returned an inhibition of 45%. At Acetylcholinesterase, this compound registered an IC50 of 6.8 µM. Moreover, the viability at 24 h, 1 µM in data set [4] was 100%.
With `COc1ccc2c(CCNC(=O)c3ccc(CN(C)Cc4cccc(Cl)c4)cc3)c[nH]c2c1`, the Papp in [1] worked out at 7.9 ×10⁻⁶ cm/s. Also, the Activity was found to be 12% in the data set on SH-SY5Y [2] and 1.8 in data set [3]. In addition, in the data set listed under Homo sapiens, the inhibition is 22%. Further, 2.1 µM corresponded to half-maximal inhibition on Acetylcholinesterase (IC50). Besides, in data set [4], the viability at 24 h, 1 µM was determined as 100%.
`CN(Cc1ccc(C(=O)NCCc2c[nH]c3ccccc23)cc1)Cc1cccc(Cl)c1`: the Papp in data set [1] was 7.1 ×10⁻⁶ cm/s. Further, the Activity came out at 12% in the data set on SH-SY5Y [2] and 2.9 in data set [3]. In the data set listed under Homo sapiens, this compound yielded an inhibition of 38%. Also, the concentration for half-maximal inhibition (IC50) on Acetylcholinesterase came out at 5.1 µM. For the same compound, in [4], the viability at 24 h, 1 µM was found to be 100%.
Regarding `COc1ccccc1CN(C)Cc1ccc(C(=O)NCCc2c[nH]c3ccccc23)cc1`, in data set [1], the Papp turned out to be 8.8 ×10⁻⁶ cm/s. Further, the Activity with SH-SY5Y [2] is 12%; in the data set on SH-SY5Y [6], “Non-toxic”; in data set [3], 2.9; in the data set with SH-SY5Y [8] it was “Non-toxic”. Further, the outcome in the data set filed under Rattus norvegicus [5] and in the data set filed under Rattus norvegicus [7] was Active. On Acetylcholinesterase, this compound showed a half-inhibitory concentration (IC50) of 4.7 µM. In addition, in [4], the viability at 24 h, 1 µM came to 100%.
As to `COc1ccc2c(CCNC(=O)c3ccc(CN(C)Cc4ccccc4)cc3)c[nH]c2c1`, the Papp in data set [1] was determined as 7.2 ×10⁻⁶ cm/s. The Activity amounted to 12% in the data set on SH-SY5Y [2] and 1.5 in data set [3]. Also, the IC50 against Acetylcholinesterase worked out at 4.1 µM. Moreover, in data set [4], the viability at 24 h, 1 µM amounted to 100%.
Consider `CC(=O)NCCc1c(Cc2ccccc2)[nH]c2ccccc12`, for which the outcome in the data set listed under Rattus norvegicus [5] and in the data set listed under Rattus norvegicus [7] was inactive.
In the case of `CN(Cc1ccccc1)Cc1ccc(C(=O)NCCc2c[nH]c3ccc(O)cc23)cc1`, the Papp in [1] amounted to 5 ×10⁻⁶ cm/s. In addition, the Activity with SH-SY5Y [2] was 12%; in [3], 4.3. 4.2 µM corresponded to half-maximal inhibition at Acetylcholinesterase (IC50). Besides, the viability at 24 h, 1 µM in data set [4] is 100%.
On to `CN(Cc1ccc(C(=O)NCCc2c[nH]c3ccccc23)cc1)Cc1ccccc1Cl`, for which, in [1], the Papp turned out to be 5.8 ×10⁻⁶ cm/s. Moreover, the Activity in the data set with SH-SY5Y [2] was determined as 12%; in data set [3], 2.8. This compound had an inhibition in the data set filed under Homo sapiens of 38%. At Acetylcholinesterase, this compound came in with an IC50 of 3.8 µM. In addition, the viability at 24 h, 1 µM in data set [4] came to 100%.
For `CN(Cc1ccccc1)Cc1ccc(C(=O)NCCc2c[nH]c3cc(F)ccc23)cc1`, the Papp in data set [1] was 6.6 ×10⁻⁶ cm/s. Also, the Activity came to 12% in the data set with SH-SY5Y [2] and 2.1 in data set [3]. On Acetylcholinesterase, this compound yielded a half-inhibitory concentration (IC50) of 2.5 µM. Also, the viability at 24 h, 1 µM in data set [4] amounted to 100%.
As to `COc1ccc2[nH]cc(CCNC(=O)c3ccc(CN(C)Cc4cccc(Cl)c4)cc3)c2c1`, the Papp in data set [1] worked out at 7.9 ×10⁻⁶ cm/s. Besides, the Activity in the data set on SH-SY5Y [2] came to 12%; in [3], 2.6. For the same compound, the inhibition in the data set listed under Homo sapiens is 38%. Half-maximal inhibition against Acetylcholinesterase (IC50) required 5.6 µM. Further, the viability at 24 h, 1 µM in [4] came to 100%.
